This is an account of results in article PMC4569013, “Massive Bioaccumulation and Self‐Assembly of Phenazine Compounds in Live Cells” (Advanced Science, 2015).

In data set [1] the test system is MDCK epithelial cells. Kind of data set: Linear diattenuation anisotropy microscopy (LC-PolScope) of intracellular inclusions. In kind it is cell-based, Canine. To be noted: 72 h, compared with clofazimine. The protocol: (§1) The optical design was built on a Nikon Eclipse Ti microscope equipped with the liquid crystal universal compensator consisting of a linear polarizer and a pair of liquid crystal devices. The LC compensator was part of the transillumination path and was used to illuminate the specimen with monochromatic, linearly polarized light of varying polarization orientation. There was no polarization analyzer present in the imaging path. Quantitative intensity images were recorded by a charge‐coupled device camera and a desktop computer calculated the average transmittance, the differential transmittance and the polarization orientation leading to maximum transmittance for each optically resolved picture element (pixel). Acquisition and processing steps were controlled using OpenPolScope plugins for the open source imaging programs ImageJ and Micro‐Manager (MMStudio version 1.4.15). With the combination of hardware and software, polarized light images were acquired at high sensitivity and high spatial resolution for measuring linear diattenuation.
(§2) Linear Diattenuation Microscopy Data Acquisition and Analysis: After RAW264.7 macrophages or MDCK epithelial cells were incubated with the compound in the chambered cover glasses for 72 h, at the same time of performing transmitted microscopic examination, cell specimens were examined under linear diattenuation microscopy using the Nikon Eclipse Ti microscope with 40×/0.75 NA objective and monochromatic light of two different center wavelengths, 546 and 623 nm (passband 30 nm). In the OpenPolScope software, Pol‐Acquisition and Pol‐Analyzer plugins (version 2.0) were used to capture, process, and analyze the attenuation images. Before imaging the samples, the setup was calibrated using a specially prepared slide featuring four small pieces of linear polarization filters. The transmission axes of the filters were oriented in steps of 45° providing a means to calibrate the LC universal compensator settings. After the calibration, a sample slide was inserted and first a sequence of polarized light images of a clear, fully transmitting sample area was recorded, followed by an image sequence featuring the cells under investigation. The images of the clear area were used to determine instrument factors which were needed for computing the average and the polarization dependent loss in transmittance in cellular components visible in the second image.10
(§3) Linear diattenuation is a material property that can occur in materials such as crystals, in which the light absorbing molecules are arranged with a preferred orientation. The molecular alignment creates principal axes in the material denoting polarization directions for which light is maximally and minimally transmitted. Diattenuation is the difference between maximal (T max) and minimal (T min) transmittance, divided by their sum (Equation (1)): (1) Diattenuation=Tmax‐Tmin/Tmax+Tmin
(§4) To simultaneously measure the attenuation of many crystals with arbitrary orientations, we developed algorithms based on four specimen images, each recorded using light of a different polarization orientation: 0°, 45°, 90°, and 135°.10 The four raw images were used to calculate the average and differential transmittance and the orientation of maximum transmittance in every resolved image pixel. To isolate and analyze quantitative data of the objects (crystals), the anisotropy or maximum transmittance axis orientation image file opened in ImageJ was inverted (Ctrl + Shift + I) and thresholded using ImageJ's default automatic method (“Binary” → “Convert to Mask”). By using the ImageJ's algorithm, “Analyze Particles,” data of anisotropy or maximum transmittance axis orientation of objects in images could be obtained automatically. Diattenuation ratios were calculated by dividing anisotropy at 623 nm by that at 546 nm.

The subject of data set [2] is MDCK epithelial cells. The data set is described as follows: Confocal fluorescence microscopy, intracellular localization of inclusions. The data set is classed as cell-based, Canine. To be noted: 5 × 10^−6 M, 72 h, live cells. The protocol: (§5) Confocal Fluorescent Microscopy: A Nikon A1 confocal microscope was used for further investigation of live cells incubated with chiral pairs of compounds (T and U) and the parent compound, P. Since crystals or vesicular forms containing chemicals inside the cells incubated with Compound P, T, or U were fluorescent when viewed with the TRITC filter sets, intracellular distribution of these compounds in RAW264.7 or MDCK cells were visualized using a Nikon A1 confocal microscopy (Nikon Instruments Inc., Melville, NY) equipped with diode‐based lasers and a Nikon Apo 60×/1.4 NA oil immersion lens. Briefly, RAW264.7 macrophages or MDCK epithelial cells were seeded in the 8‐well Nunc Lab‐Tek II chambered (#1.5) cover glasses (Thermo Scientific, Pittsburgh, PA) at a density of 8 × 10^3 cells cm^−2 (RAW264.7 cells) or 1.5 × 10^4 cells cm^−2 (MDCK cells) and allowed to adhere overnight (37 °C, 5% CO2). Then, 5 × 10^−6 M of Compound “P” or the related isomers, “T” or “U” in DMEM with 5% FBS (300 μL) was added to the cells and the cells were incubated for 72 h (37 °C, 5% CO2). For live cell imaging, after the removal of media, cells were washed with HBSS buffer twice. Hoechst 33342 (Invitrogen, Carlsbad, CA) was used for staining cell nuclei and FM 1‐43 (Molecular Probes T35356, Invitrogen) for the plasma membrane. Cells were incubated with 300 μL of 1:1 (v/v) dye mixtures of 5 μg mL^−1 Hoechst 33342 and 7 × 10^−6 M FM 1‐43 in HBSS for 15 min at room temperature. Without fixative, the confocal imaging of the live cells was performed using lasers for DAPI (excitation/emission wavelength: 405 nm/450 ± 25 nm), FITC (488 nm/525 ± 25 nm), and TRITC (561 nm/596 ± 25 nm) channels. Z‐stack images of the cells were captured along the Z‐axis (interval, 1 μm) in three fluorescence channels and analyzed by using the Nikon NIS‐Elements 3.2 confocal software (Nikon Instruments Inc., Melville, NY). […]

Data set [3] deals with RAW264.7 macrophages. Kind of data set: Cell associated mass measurements (bioaccumulation, pmole/cell). As to conditions: 72 h incubation, normalized by number of cells. The data set is classed as cell-based. The protocol:
Cell Associated Mass Measurements: […] After an overnight incubation (37 °C, 5% CO2), cells were incubated with 100 μL of the media (DMEM with 5% FBS) containing 5 × 10^−6 M clofazmine or its chemical derivatives (2.5 × 10^−6 M of Compound “I”). Media containing each compound was replaced every day during the 72 h incubation. After the incubation, media was removed and cells were washed with Hank's balanced salt solution (HBSS) buffer (No. 14025; Invitrogen) twice. RAW264.7 macrophage cells in buffer were scraped and MDCK epithelial cells were exposed to Trypsin‐EDTA solution for detachment from the plates for cell number counting and quantification of cell‐associated masses. After centrifugation (650 × g), supernatant was removed and cell pellets were resuspended in 0.1 M citric acid/0.1 M trisodium citrate buffer (pH 5) for cell counting as previously reported.7 Equal numbers of cells in 100 μL in buffer were transferred to 96 well plates and 100 μL of detergent (ATCC, 30‐1010K) was added into wells for cell lysis. Chemical absorbance from each well was measured by the UV–vis microplate reader (Synergy 2, BioTek Instruments, Winooski, VT) at 490 nm wavelength and cell‐associated mass of each compound was calculated by a standard curve generated separately using the same media and presented as pmole/cell by normalizing the amount of chemical in each cell population sample by the number of cells in each sample.

For data set [4], the system named is RAW264.7 macrophages. Kind of data set: Linear diattenuation anisotropy microscopy (LC-PolScope) of intracellular inclusions. The data set is classed as cell-based. As to conditions: 72 h, compared with clofazimine. The protocol:
as §1, §2, §3, §4

Data set [5] has as its system RAW264.7 macrophages. The data set is described as follows: Confocal fluorescence microscopy, intracellular localization of inclusions. In kind it is cell-based. To be noted: 5 × 10^−6 M, 72 h, live cells. The protocol: as §5

With `Clc1ccc(Nc2cc3nc4ccccc4n(-c4ccc(Cl)cc4)c-3cc2=NCCc2ccccc2)cc1` [Compound P], the “Diattenuation anisotropy of intracellular inclusions” value in data set [1] and in data set [4] was “higher diattenuation anisotropy” throughout. Moreover, the “Intracellular localization of compound (fluorescence, TRITC channel)” value in data set [2] and in data set [5] was “localized at the periphery of the cell nuclei” in each case. Further, the Accumulation in macrophages result in data set [3] is given as “greatest accumulation”.
With `C[C@@H](CN=c1cc2n(-c3ccc(Cl)cc3)c3ccccc3nc-2cc1Nc1ccc(Cl)cc1)c1ccccc1` [Compound U], the “Diattenuation anisotropy of intracellular inclusions” value in data set [1] is reported as “only in macrophages”; in data set [4], “even higher anisotropy”. In addition, the “Intracellular localization of compound (fluorescence, TRITC channel)” value in data set [2] and in data set [5] was “localized at the periphery of the cell nuclei” in each case. Moreover, the Accumulation in macrophages entry in data set [3] is recorded as “greatest accumulation”.
